Measurements reported in patent US6602900B2, “Cyclopentane heptan(ENE)oic acid, 2-heteroarylalkenyl derivatives as therapeutic agents” (Allergan, Inc., priority 1992, dated 2003).

Columns and labels:
[1] = system: Dog intraocular pressure; test: Dog intraocular pressure by applanation pneumatonometry; assay type: in vivo; conditions: dogs
Description: The compounds were prepared at the said concentrations in a vehicle comprising 0.1% polysorbate 80 and 10 mM TRIS base. Dogs were treated by administering 25 μl to the ocular surface, the contralateral eye received vehicle as a control. Intraocular pressure was measured by applanation pneumatonometry. Dog intraocular pressure was measured immediately before drug administration and at 6 hours thereafter.

[2] = system: intraocular pressure; conditions: ocular; cited from earlier work
[3] = system: ocular surface; conditions: humans; cited from earlier work

Molecule | ocular hypotensive effect (in words) [1] | hypotensive potency versus parent compound (in words) [2] | side effects of topical ocular use (in words) [3]
NC(=O)CCC/C=C\CC1C(O)CC(O)C1/C=C/C(O)CCc1sccc1I (stereo not drawn) [Compound 8t] | pronounced ocular hypotensive effect | – | –
Cc1c(Br)csc1CCC(O)/C=C/C1C(O)CC(O)C1C/C=C\CCCC(N)=O (stereo not drawn) [Compound 8u] | pronounced ocular hypotensive effect | – | –
NC(=O)CCC/C=C\CC1C(O)CC(O)C1/C=C/C(O)CCc1scc(Br)c1Br (stereo not drawn) [Compound 8v] | pronounced ocular hypotensive effect | – | –
CCCCC[C@H](O)/C=C/[C@@H]1[C@@H](C/C=C\CCCC(=O)OC(C)C)[C@@H](O)C[C@H]1O [isopropyl ester of PGF2α] | – | significantly greater hypotensive potency than the parent compound | ocular surface (conjunctival) hyperemia and foreign-body sensation
prostaglandin F2α [PGF2α] | – | – | ocular surface (conjunctival) hyperemia and foreign-body sensation
